In patent US6667311B2, “Nitrogen substituted biaryl purine derivatives as potent antiproliferative agents” (Albany Molecular Research, Inc., priority 2001, dated 2003):

Legend:
Type in all cases: cell-based, human
SK-MEL-28 = assay: NCI growth inhibition, SK-MEL-28; conditions: SK-MEL-28 (Melanoma)
SW-620 = assay: NCI growth inhibition, SW-620; conditions: SW-620 (Colon)
MDA-MB-435 = assay: NCI growth inhibition, MDA-MB-435; conditions: MDA-MB-435 (Breast)
HCC-2998 = assay: NCI growth inhibition, HCC-2998; conditions: HCC-2998 (Colon)
MCF7 = assay: NCI growth inhibition, MCF7; conditions: MCF7 (Breast)
SK-MEL-2 = assay: NCI growth inhibition, SK-MEL-2; conditions: SK-MEL-2 (Melanoma)
UACC-62 = assay: NCI growth inhibition, UACC-62; conditions: UACC-62 (Melanoma)
A549/ATCC = assay: NCI growth inhibition, A549/ATCC; conditions: A549/ATCC (Non-Small Cell Lung)
CCRF-CEM = assay: NCI growth inhibition, CCRF-CEM; conditions: CCRF-CEM (Leukemia)
ACHN = assay: NCI growth inhibition, ACHN; conditions: ACHN (Renal)
M14 = assay: NCI growth inhibition, M14; conditions: M14 (Melanoma)
COLO 205 = assay: NCI growth inhibition, COLO 205; conditions: COLO 205 (Colon)
NCI/ADR-RES = assay: NCI growth inhibition, NCI/ADR-RES; conditions: NCI/ADR-RES (Breast)
MDA-MB-231/ATCC = assay: NCI growth inhibition, MDA-MB-231/ATCC; conditions: MDA-MB-231/ATCC (Breast)
SN12C = assay: NCI growth inhibition, SN12C; conditions: SN12C (Renal)
HS 578T = assay: NCI growth inhibition, HS 578T; conditions: HS 578T (Breast)
SR = assay: NCI growth inhibition, SR; conditions: SR (Leukemia)
SK-OV-3 = assay: NCI growth inhibition, SK-OV-3; conditions: SK-OV-3 (Ovarian)
MOLT-4 = assay: NCI growth inhibition, MOLT-4; conditions: MOLT-4 (Leukemia)
A498 = assay: NCI growth inhibition, A498; conditions: A498 (Renal)
SF-295 = assay: NCI growth inhibition, SF-295; conditions: SF-295 (CNS)
HOP-92 = assay: NCI growth inhibition, HOP-92; conditions: HOP-92 (Non-Small Cell Lung)
OVCAR-8 = assay: NCI growth inhibition, OVCAR-8; conditions: OVCAR-8 (Ovarian)
U251 = assay: NCI growth inhibition, U251; conditions: U251 (CNS)
SF-539 = assay: NCI growth inhibition, SF-539; conditions: SF-539 (CNS)
EKVX = assay: NCI growth inhibition, EKVX; conditions: EKVX (Non-Small Cell Lung)
MALME-3M = assay: NCI growth inhibition, MALME-3M; conditions: MALME-3M (Melanoma)
T-47D = assay: NCI growth inhibition, T-47D; conditions: T-47D (Breast)
NCI-H522 = assay: NCI growth inhibition, NCI-H522; conditions: NCI-H522 (Non-Small Cell Lung)
RPMI-8226 = assay: NCI growth inhibition, RPMI-8226; conditions: RPMI-8226 (Leukemia)
MDA-N = assay: NCI growth inhibition, MDA-N; conditions: MDA-N (Breast)
UACC-257 = assay: NCI growth inhibition, UACC-257; conditions: UACC-257 (Melanoma)
786-0 = assay: NCI growth inhibition, 786-0; conditions: 786-0 (Renal)
HT29 = assay: NCI growth inhibition, HT29; conditions: HT29 (Colon)
HCT-116 = assay: NCI growth inhibition, HCT-116; conditions: HCT-116 (Colon)
IGROV1 = assay: NCI growth inhibition, IGROV1; conditions: IGROV1 (Ovarian)
DU-145 = assay: NCI growth inhibition, DU-145; conditions: DU-145 (Prostate)
NCI-H23 = assay: NCI growth inhibition, NCI-H23; conditions: NCI-H23 (Non-Small Cell Lung)
SF-268 = assay: NCI growth inhibition, SF-268; conditions: SF-268 (CNS)
UO-31 = assay: NCI growth inhibition, UO-31; conditions: UO-31 (Renal)
TK-10 = assay: NCI growth inhibition, TK-10; conditions: TK-10 (Renal)
LOX IMVI = assay: NCI growth inhibition, LOX IMVI; conditions: LOX IMVI (Melanoma)
PC-3 = assay: NCI growth inhibition, PC-3; conditions: PC-3 (Prostate)
HCT-15 = assay: NCI growth inhibition, HCT-15; conditions: HCT-15 (Colon)
NCI-H322M = assay: NCI growth inhibition, NCI-H322M; conditions: NCI-H322M (Non-Small Cell Lung)

With `CC(=O)N[C@H]1CC[C@H](Nc2nc(NCc3ccc(-c4ccccc4)nc3)c3ncn(C(C)C)c3n2)CC1` [Compound 87] the GI50 (SK-MEL-28) was less than 10 nM, the GI50 (SW-620) was less than 10 nM and the GI50 (MDA-MB-435) was less than 10 nM. For the same molecule, the GI50 (HCC-2998) was less than 10 nM, the GI50 (MCF7) was 40 nM and the GI50 (SK-MEL-2) was 56 nM. The GI50 (UACC-62) was 45 nM, the GI50 (A549/ATCC) was less than 10 nM and the GI50 (CCRF-CEM) was less than 10 nM. It also gave a GI50 (ACHN) of 190 nM, a GI50 (M14) of less than 10 nM and a GI50 (COLO 205) of less than 10 nM. It also gave a GI50 (NCI/ADR-RES) of 280 nM, a GI50 (MDA-MB-231/ATCC) of less than 10 nM and a GI50 (SN12C) of less than 10 nM. For the same molecule, the GI50 (HS 578T) was less than 10 nM, the GI50 (SR) was 32 nM and the GI50 (SK-OV-3) was 350 nM. The GI50 (MOLT-4) was 20 nM, the GI50 (A498) was 100 nM and the GI50 (SF-295) was 47 nM. For the same molecule, the GI50 (HOP-92) was 88 nM, the GI50 (OVCAR-8) was 33 nM and the GI50 (U251) was 28 nM. For the same molecule, the GI50 (SF-539) was 81 nM, the GI50 (EKVX) was 81 nM and the GI50 (MALME-3M) was 24 nM. For the same molecule, the GI50 (T-47D) was 48 nM, the GI50 (NCI-H522) was less than 10 nM and the GI50 (RPMI-8226) was less than 10 nM. For the same molecule, the GI50 (MDA-N) was 14 nM, the GI50 (UACC-257) was 17 nM and the GI50 (786-0) was 47 nM. The GI50 (HT29) was less than 10 nM, the GI50 (HCT-116) was 37 nM and the GI50 (IGROV1) was 52 nM. It also gave a GI50 (DU-145) of 220 nM, a GI50 (NCI-H23) of 22 nM and a GI50 (SF-268) of less than 10 nM. For the same molecule, the GI50 (UO-31) was 16 nM, the GI50 (TK-10) was 29 nM and the GI50 (LOX IMVI) was 27 nM. For the same molecule, the GI50 (PC-3) was 18 nM, the GI50 (HCT-15) was 66 nM and the GI50 (NCI-H322M) was 21 nM.
